Molecules are shown by their SMILES. Where two headings read alike, the source gives them in different places.

Here are results for 39 compounds from EP2439197A1, “Substituted benzimidazole derivatives as melanocortin 4 receptor antagonists” (Santhera Pharmaceuticals (Schweiz) AG, priority 2010, dated 2012).

Assay [1] concerns the target T1, hMC-4R (Homo sapiens, UniProt P32245).
T1 construct: expressed in transfected cells; host or cells: HEK293 cells (membrane preparations)
Kind of assay: membrane binding assay, competition with fluorescence labeled NDP-alpha-MSH (fluorescence polarization). On the procedure:
A membrane binding assay is used to identify competitive inhibitors of fluorescence labeled NDP-alpha-MSH binding to HEK293 cell membrane preparations expressing human melanocortin receptors.
The test compound or unlabeled NDP-alpha-MSH is dispensed at varying concentrations to a 384 well microtiter plate. Fluorescence labeled NDP-alpha-MSH is dispensed at a single concentration, followed by addition of membrane preparations. The plate is incubated for 5 h at room temperature.
The degree of fluorescence polarization is determined with a fluorescence polarization microplate reader.

Assay [2] has as its target T1, hMC-4R. Kind of assay: functional assay, homogeneous membrane based cAMP fluorescence polarization assay. Particulars: for Emax: read-out: % activation functional assay. The assay is classed as biochemical. A general note: In fluorescence polarisation assays a small probe gives low polarisation when free and higher when bound to something large.
The mark [3] stands for this setting: HEK293 cell membrane preparations expressing human melanocortin receptors, read-out: hMC-4R binding assay IC50/µM.

T1 sequence (P32245 whole entry): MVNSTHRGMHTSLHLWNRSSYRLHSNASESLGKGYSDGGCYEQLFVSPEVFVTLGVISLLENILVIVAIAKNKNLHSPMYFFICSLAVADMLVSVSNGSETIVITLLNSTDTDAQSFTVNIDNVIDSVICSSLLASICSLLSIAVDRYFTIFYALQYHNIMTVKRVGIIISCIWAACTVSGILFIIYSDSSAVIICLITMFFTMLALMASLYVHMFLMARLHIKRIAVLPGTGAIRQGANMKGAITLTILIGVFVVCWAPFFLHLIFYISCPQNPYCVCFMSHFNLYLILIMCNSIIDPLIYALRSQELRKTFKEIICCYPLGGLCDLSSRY

`CC(C)CCN(CCC(C)C)C(=O)c1ccc2nc([C@H]3CC[C@H](N(C)C)CC3)n(CCCN3CCCC3)c2c1` [Example 17]: the IC50 in assay [1] was < 0.1 µM. For the same compound, the Emax in assay [2] is -6%.

As to `CC(C)CCN(CCC(C)C)C(=O)c1ccc2nc(C3CCNCC3)n(CCCN3CCCC3C)c2c1` (stereo not shown) [Example 26], the IC50 in assay [1] is < 0.1 µM. Further, the Emax in assay [2] is -12%.

As to `CC(C)CCN(CCC(C)C)C(=O)c1ccc2nc(C3CCC(=O)NC3)n(CCCN3CCCC3)c2c1` (stereo not shown) [Example 35], in assay [1], the IC50 was < 1 µM. Also, the Emax in assay [2] was -11%.

On to `CC(C)CCN(CCC(C)C)C(=O)c1ccc2nc(CC3CCN(C(=O)OC(C)(C)C)CC3)n(CCCN3CCCC3)c2c1` [Example 13], for which the IC50 in assay [1] is < 0.1 µM. The Emax in assay [2] was -7%.

`CC(C)CCN(CCC(C)C)C(=O)c1ccc2nc(CC3CCN(C)CC3)n(CCCN3CCCC3)c2c1` [Example 29]: the IC50 in assay [1] is < 0.1 µM. Besides, the Emax in assay [2] was -10%.

Consider `COc1cc(C2(c3nc4ccc(C(=O)N(CCC(C)C)CCC(C)C)cc4n3CCCN3CCCC3)CC2)ccn1` [Example 5], for which, in assay [1], the IC50 was < 1 µM. Further, the Emax in assay [2] is -6%.

`CCCCN(CCCC)C(=O)c1ccc2nc(CC3CCNCC3)n(CCCN3CCCC3)c2c1` [Example 38]: the IC50 in assay [1] was < 0.1 µM. In assay [2], the Emax is -5%.

In the case of `CC(C)CCN(CCC(C)C)C(=O)c1ccc2nc(C3CCN(C(=O)OC(C)(C)C)CC3)n(CCCN3CCCC3)c2c1` [Example 11], the IC50 in assay [1] is < 0.1 µM. In assay [2], the EC50 was < 0.1 µM and the Emax was -33%.

Consider `CCCCN(CCCC)C(=O)c1ccc2nc(CC3CCN(C)CC3)n(CCCN3CCCC3)c2c1` [Example 39], for which the IC50 in assay [1] is < 0.1 µM. Also, the Emax in assay [2] is -8%.

In the case of `CC(C)CCN(CCC(C)C)C(=O)c1ccc2nc(-c3ccc(=O)[nH]c3)n(CCCN3CCCC3C)c2c1` (stereo not shown) [Example 25], the IC50 in assay [1] was < 0.1 µM. In assay [2], the EC50 was < 0.1 µM and the Emax was -37%.

As for `CC(C)CCN(CCC(C)C)C(=O)c1ccc2nc(CC3CCN(C4COC4)CC3)n(CCCN3CCCC3)c2c1` [Example 15], the IC50 in assay [1] was < 0.1 µM. Besides, the Emax in assay [2] is -11%.

Take `CC(C)CCN(CCC(C)C)C(=O)c1ccc2nc(CN3CCN(C)CC3)n(CCCN3CCCC3)c2c1` [Example 8]: in assay [1] (setting [3]), the IC50 is < 0.1 µM. In assay [2], the Emax is -6%.

Take `CC(C)CCN(CCC(C)C)C(=O)c1ccc2nc(CC3CCNCC3)n(CCCN3CCCC3)c2c1` [Example 28]: the IC50 in assay [1] (setting [3]) is < 0.1 µM. In assay [2], the Emax is -6%.

`CC(C)CCN(CCC(C)C)C(=O)c1ccc2nc(CN3CCN(C(C)C)CC3)n(CCCN3CCCC3)c2c1` [Example 10]: the IC50 in assay [1] is < 1 µM. In assay [2], the Emax worked out at 0%.

On to `CC(C)CCN(CCC(C)C)C(=O)c1ccc2nc(CC3CCN(CCO)CC3)n(CCCN3CCCC3)c2c1` [Example 14], for which the IC50 in assay [1] is < 0.1 µM. In assay [2], the Emax is -18%.

On to `CC(C)CCN(CCC(C)C)C(=O)c1ccc2nc(C3CCNCC3)n(CCCN3CCCC3)c2c1` [Example 23], for which the IC50 in assay [1] was < 0.1 µM. In addition, in assay [2], the EC50 is < 0.1 µM and the Emax is -39%.

As to `CC(C)CCN(CCC(C)C)C(=O)c1ccc2nc(N3CCN(C)CC3)n(CCCN3CCCC3)c2c1` [Example 7], the IC50 in assay [1] was 1 to 10 µM. The Emax in assay [2] is -4%.

For `COc1ccc(C2(c3nc4ccc(C(=O)N(CCC(C)C)CCC(C)C)cc4n3CCCN3CCCC3)CC2)cn1` [Example 6], the IC50 in assay [1] is < 1 µM. Also, the Emax in assay [2] was -11%.

`CC(C)CCN(CCC(C)C)C(=O)c1ccc2nc(CN3CCN(CCO)CC3)n(CCCN3CCCC3)c2c1` [Example 9]: the IC50 in assay [1] was < 0.1 µM. Further, in assay [2], the Emax was -9%.

In the case of `CC(C)CCN(CCC(C)C)C(=O)c1ccc2nc(C3CNC(=O)C3)n(CCCN3CCCC3)c2c1` (stereo not shown) [Example 34], the IC50 in assay [1] is < 0.1 µM. The Emax in assay [2] is -10%.

As to `CC(C)CCN(CCC(C)C)C(=O)c1ccc2nc(-c3ccc(=O)[nH]c3)n(CC(O)CN3CCCC3)c2c1` (stereo not shown) [Example 1], the IC50 in assay [1] was < 1 µM. In addition, in assay [2], the Emax is -15%.

Regarding `COc1ccc(-c2nc3ccc(C(=O)N(CCC(C)C)CCC(C)C)cc3n2CC(O)CN2CCCC2)cn1` (stereo not shown) [Example 3], the IC50 in assay [1] (setting [3]) was < 0.1 µM. Besides, the EC50 in assay [2] (membrane preparations from HEK293 cells, cAMP production, read-out: hMC-4R functional assay EC50/µM) was 0.1 to 1 µM. For the same compound, the Emax in assay [2] is -25%.

On to `CC(C)CCN(CCC(C)C)C(=O)c1ccc2nc(-c3ccc(=O)[nH]c3)n(CCCN3CCCCC3)c2c1` [Example 22], for which the IC50 in assay [1] (setting [3]) is < 0.1 µM. Moreover, in assay [2], the Emax is -12%.

As to `CC(C)CCN(CCC(C)C)C(=O)c1ccc2nc(-c3ccc(=O)[nH]c3)n(CCCN3CCCC3)c2c1` [Example 21], in assay [1], the IC50 was < 0.1 µM. The Emax in assay [2] is -14%.

Consider `CC(C)CCN(CCC(C)C)C(=O)c1ccc2nc(C3CNC3)n(CCCN3CCCC3)c2c1` [Example 31], for which the IC50 in assay [1] was < 0.1 µM. Further, in assay [2], the EC50 lay within 0.1 to 1 µM and the Emax was -32%.

On to `CC(C)CCN(CCC(C)C)C(=O)c1ccc2nc(C3CN(C(=O)OC(C)(C)C)C3)n(CCCN3CCCC3)c2c1` [Example 16], for which the IC50 in assay [1] (setting [3]) is < 0.1 µM. The Emax in assay [2] is -9%.

For the compound `CCCCN(CCCC)C(=O)c1ccc2nc(CC3CCN(C(=O)OC(C)(C)C)CC3)n(CCCN3CCCC3)c2c1` [Example 19], the IC50 in assay [1] is < 0.1 µM. In addition, in assay [2], the EC50 was < 0.1 µM and the Emax was -33%.

With `CC(C)CCN(CCC(C)C)C(=O)c1ccc2nc(C3CCC(=O)N(C)C3)n(CCCN3CCCC3)c2c1` (stereo not shown) [Example 37], in assay [1], the IC50 is < 1 µM. The Emax in assay [2] is -2%.

For `CC(C)CCN(CCC(C)C)C(=O)c1ccc2nc(-c3cnc(O)nc3)n(CCCN3CCCC3)c2c1` [Example 30], the IC50 in assay [1] is < 1 µM. Further, the Emax in assay [2] is -12%.

Regarding `CC(C)CCN(CCC(C)C)C(=O)c1ccc2nc(C3CCN(C)C(=O)C3)n(CCCN3CCCC3)c2c1` (stereo not shown) [Example 36], in assay [1], the IC50 was < 1 µM. In addition, the Emax in assay [2] was -5%.

Regarding `CCCCN(CCCC)C(=O)c1ccc2nc(CC3CCN(C4COC4)CC3)n(CCCN3CCCC3)c2c1` [Example 20], the IC50 in assay [1] was < 1 µM. The Emax in assay [2] is 0%.

Take `COc1cc(Cc2nc3ccc(C(=O)N(CCC(C)C)CCC(C)C)cc3n2CCCN2CCCC2)ccn1` [Example 33]: in assay [1], the IC50 is < 0.1 µM. For the same compound, the Emax in assay [2] came out at 0%.

Consider `CC(C)CCN(CCC(C)C)C(=O)c1ccc2nc(-c3ccc(=O)[nH]c3)n(CC(F)CN3CCCC3)c2c1` (stereo not shown) [Example 2], for which the IC50 in assay [1] is < 0.1 µM. Besides, in assay [2], the Emax was -11%.

Consider `CC(C)CCN(CCC(C)C)C(=O)c1ccc2nc(C3CN(C)C3)n(CCCN3CCCC3)c2c1` [Example 32], for which, in assay [1], the IC50 was < 0.1 µM. In assay [2], the EC50 is < 0.1 µM and the Emax is -18%.

In the case of `CC(C)CCN(CCC(C)C)C(=O)c1ccc2nc(-c3ncco3)n(CC(O)CN3CCCC3)c2c1` (stereo not shown) [Example 4], in assay [1], the IC50 is < 0.1 µM. Also, in assay [2], the EC50 is < 0.1 µM and the Emax was -28%.

As to `CC(C)CCN(CCC(C)C)C(=O)c1ccc2nc(C3CCN(C(=O)OC(C)(C)C)CC3)n(CCCN3CCCC3C)c2c1` (stereo not shown) [Example 12], the IC50 in assay [1] is < 0.1 µM. In assay [2], the EC50 was < 0.1 µM and the Emax is -40%.

With `CC(C)CCN(CCC(C)C)C(=O)c1ccc2nc([C@H]3CC[C@@H](N(C)C)CC3)n(CCCN3CCCC3)c2c1` [Example 18], the IC50 in assay [1] was < 0.1 µM. Also, the Emax in assay [2] is -19%.

Take `CC(C)CCN(CCC(C)C)C(=O)c1ccc2nc(C3CCN(C)CC3)n(CCCN3CCCC3)c2c1` [Example 24]: the IC50 in assay [1] was < 0.1 µM. Besides, in assay [2], the EC50 is < 0.1 µM and the Emax is -44%.

Consider `CC(C)CCN(CCC(C)C)C(=O)c1ccc2nc(C3CCN(C)CC3)n(CCCN3CCCC3C)c2c1` (stereo not shown) [Example 27], for which the IC50 in assay [1] (setting [3]) is < 0.1 µM. The Emax in assay [2] was -2%.
